Patent US20090232735A1, “USE OF FRUCTOSE-BASED THERAPIES FOR THE TREATMENT OF CANCER” (CEDARS-SINAI MEDICAL CENTER, priority 2005, published 2009)

Assays:
[1] = test system: AP1 activation in MCF-7 breast cancer cells; assay: ELISA-based transbinding AP1 assay in breast cancer cells; type: cell-based, human; settings: 5.5 mM sugar
Description: FIG. 12 depicts an increase in AP1 activation in fructose-treated cells in accordance with an embodiment of the present invention. MCF-7 breast cancer cells were incubated in 2 mM glucose, or 5 mM glucose or fructose for 24 h, after which nuclear extracts were incubated with a biotinylated AP-1 probe in binding buffer. AP-1/AP1 probe complexes were next conjugated to a streptavidin-coated assay plate and detected using an AP-1 specific antibody, followed by binding of a horseradish-peroxidase conjugated secondary antibody, and detection by a colorimetric reagent. *, p<0.001.
Although several signal transduction pathways are likely involved in the fructose-mediated enhanced breast cancer growth and while not wishing to be bound by any particular theory, the inventors believe that the MAP-kinase pathway is involved. The inventors have used Western blot analysis to examine the MAPK pathway in breast cancer cells incubated in 2 mM glucose, 5.5 mM glucose, and 5.5 mM fructose for 48 hours. […] Activation of MEK, and subsequently ERK results in phosphorylation of p90^Rsk, which leads to transcriptional activation of CREB and AP1, which bind to cAMP or AP1 response elements respectively, activating gene transcription and promoting cellular growth.

[2] = Serum fructose and glucose in normal volunteers after two cans of soda; type: in vivo, human
Description: FIG. 37 depicts fasting serum fructose and glucose levels in patients with pancreatic cancer and in normal volunteers in accordance with an embodiment of the present invention. (a) Fasting serum fructose and glucose levels in 6 patients with pancreatic cancer on the morning of resection. (b) Serum fructose, and glucose levels (Mean±SEM) in 3 normal volunteers after a 10 h fast, followed by ingestion of two cans of soda, containing 76 g of carbohydrate in the form of high fructose corn syrup (55% fructose, 45% glucose).
The normal circulating concentrations of fructose are unknown. […] Briefly, aliquots (20 μl) of fructose standards (0.1, 0.5, 1, 2, 4, 6, and 8 mM) or unknown serum samples were mixed with 5 μl of a stock solution (125 U/ml) of the enzyme fructose dehydrogenase (Sigma) in 175 μl citric acid (0.05 M) phosphate (0.09 M) buffer (pH 4.5), and 20 μl of 3-(4,5-dimethylthiazol-2-yl)-2,5-diphenyltetrazolium bromide (MTT), and phenazine methosulfate (Promega), incubated for 30 minutes, after which absorbance at 570 nm was recorded in a 96-well spectrophotometer. […] As the first analysis, in accordance with institutional review board guidelines, the inventors obtained 32 serum samples randomly selected from anonymous inpatients at Cedars-Sinai Medical Center. The inventors also measured glucose in these same samples using standard glucose oxidase based methods. No details of medical condition were known for these patients, and as depicted in FIG. 36, in 24 of these 32 patients, serum fructose was greater than 5 mM. This intriguing result prompted the inventors to examine serum fructose levels in two other settings. Firstly, the inventors drew fasting blood samples from 6 patients with pancreatic cancer on the morning of surgical tumor resection. As depicted in FIG. 37a, 4 of these 6 patients had fasting serum fructose levels >5 mM, and two patients had serum fructose concentrations of ˜12 mM. The significance of these findings in pancreatic cancer patients is at this point unclear, but the inventors believe that the fructose-mediated pro-proliferative effects seen in pancreatic cancer cells in vitro are of significance, given the circulating fructose concentrations the inventors measured. In a further experiment, 3 normal volunteers fasted for 10 hours, an indwelling cannula was placed in a forearm vein, baseline fasting blood drawn, after which they drank two cans of regular soda, which contained 76 g of sugars, almost exclusively high fructose corn syrup. This source of carbohydrate was chosen to approximate to equivalent glucose concentrations used in a standard 75 g glucose tolerance test, and to bear relevance that dietary sources of high content refined fructose may pose an independent risk factor for pancreatic cancer growth.

O=C(CO)[C@@H](O)[C@H](O)[C@H](O)CO [fructose]
increase in AP1 activation [1]: 3 fold
mean fasting fructose level ([2]; 3 normal volunteers, 10 h fast, before soda): 2.66 mM
mean serum fructose peak ([2]; 30 minutes after two sodas): 17 mM
serum fructose levels ([2]; for the 2 hour duration of blood sampling after two sodas): greater than 5 mM
mean serum fructose levels ([2]; within 15 minutes after two sodas (76 g sugars, high fructose corn syrup)): 16.5 mM
